# Patent US11971413B2, “Peptoid, and its preparation method and use” (BEIJING BOE TECHNOLOGY DEVELOPMENT CO., LTD., priority 2019, dated 2024)
# Where a SMILES comes first, the peptide text is derived from it. [ ]: non-standard residue; d: D form. ξ: configuration not given here. N(CH2CH2COOH)Gly = O=C(O)CCNCC(=O)O; Gly(N-CH2CH2OH) = O=C(O)CNCCO; Nleu = CC(C)CNCC(=O)O; Nlys = NCCCCNCC(=O)O; ξC = NC(CS)C(=O)O
# Legend:
# [1] = test system: Huh7 cell line with high expression of an EpCAM protein; assay: Cell-level imaging with fluorescently labeled peptoid molecular probe, laser confocal microscopy, Huh7 cells; type: cell-based; details: probe incubated at 4° C. for 30 min, confocal 100× oil objective
# Method: (§1) The specific steps for cell-level imaging using a fluorescently labeled molecular probe with a peptoid were as follows: • (1) Cell culture and passage: The cell models were an Huh7 cell line with high expression of an EpCAM protein and a human embryonic kidney 293T cell line with low expression of EpCAM (Shanghai Biological Technology Co., Ltd. enzyme research); Huh7 and 293T cells were cultured in a constant temperature incubator (5% CO2) at 37° C. with RPMI1640 medium and DMEM/High glucose medium containing 10% fetal bovine serum and 1% penicillin and streptomycin, respectively; • (2) When the degree of cell fusion reached more than 90%, the cells were passaged. […]
# [2] = test system: human embryonic kidney 293T cell line with low expression of EpCAM; assay: Cell-level imaging with fluorescently labeled peptoid molecular probe, laser confocal microscopy, 293T control cells; type: cell-based; details: 293T cells (low EpCAM, control group), probe incubated at 4° C. for 30 min, confocal 100× oil objective
# Method: as §1
smiles,measurement,setting,value
CC(C)CNCC(=O)N(CCCCN)CC(=O)N(CCO)CC(=O)N(CCC(=O)O)CC(=O)N(CCCCN)CC(=O)N(CCCCN)CC(=O)NC(CS)C(N)=O (centres unmarked) [Example 1] (H-[Nleu][Nlys][Gly(N-CH2CH2OH)][N(CH2CH2COOH)Gly][Nlys][Nlys][ξC]-NH2),FITC green fluorescence on the cell membrane,[1],Significant green fluorescence
same,FITC green fluorescence on the cell membrane,[2],weak green fluorescence or no green fluorescence
